Tested on: EMT-6 mammary tumors
Experiment: Biodistribution in EMT-6 BALB/C mice
Assay type: in vivo
Method: As used herein, the term “tumor:background ratio” (i.e., tumor:fat ratio, tumor:muscle ratio, tumor:lung ratio, tumor:blood ratio) refers to the % injected dose/g tissue of the radiotracer in the tumor divided by the % injected dose/g […] in the background tissue (i.e., fat, muscle, lung, blood).
B. Biodistribution Studies of ^11C analogs in Tumor-Bearing Mice. Biodistribution studies were conducted in mature Balb/c mice that were implanted with EMT-6 mammary tumors identified herein as EMT-6 BALB/C mice to create laboratory tumor-bearing mice. The mice were implanted in the scapular region seven days prior to the study. Animals were injected with 100-150 μCi of the ^11C-labeled radiotracer and the animals were sacrificed at 5, 30, and 60 min post-i.v. injection of the radiotracer.
A series of biodistribution studies in tumor-bearing mice were also conducted with [^76Br]8, [^76Br]6, [^125I]8i, and [^125I]6i.

SMILES: COc1cc2c(cc1OC)CN(CCCCNC(=O)c1cc(Br)cc(OC)c1O[11CH3])CC2 [[^11C]6]
- ratio Tumor:blood (5 min): 0.40 ± 0.01
- ratio Tumor:fat (5 min): 1.82 ± 0.45
- ratio Tumor:heart (5 min): 0.80 ± 0.07
- ratio Tumor:lung (5 min): 0.47 ± 0.04
- ratio Tumor:muscle (5 min): 1.46 ± 0.19
- ratio Tumor:blood (30 min): 0.94 ± 0.05
- ratio Tumor:fat (30 min): 2.05 ± 0.57
- ratio Tumor:heart (30 min): 1.36 ± 0.12
- ratio Tumor:lung (30 min): 0.69 ± 0.08
- ratio Tumor:muscle (30 min): 0.59 ± 0.05
- ratio Tumor:blood (1 hour): 1.10 ± 0.11
- ratio Tumor:fat (1 hour): 2.77 ± 0.82
- ratio Tumor:heart (1 hour): 1.86 ± 0.64
- ratio Tumor:lung (1 hour): 0.79 ± 0.30
- ratio Tumor:muscle (1 hour): 1.84 ± 0.25
- % ID per gram blood (5 min): 7.12 ± 1.01 % ID per gram
- % ID per gram blood (30 min): 0.99 ± 0.15 % ID per gram
- % ID per gram blood (1 hour): 0.45 ± 0.04 % ID per gram
- % ID per gram brain (5 min): 0.33 ± 0.09 % ID per gram
- % ID per gram brain (30 min): 0.10 ± 0.00 % ID per gram
- % ID per gram brain (1 hour): 0.03 ± 0.00 % ID per gram
- % ID per gram fat (5 min): 1.66 ± 0.41 % ID per gram
- % ID per gram fat (30 min): 0.46 ± 0.19 % ID per gram
- % ID per gram fat (1 hour): 0.20 ± 0.08 % ID per gram
- % ID per gram heart (5 min): 3.54 ± 0.31 % ID per gram
- % ID per gram heart (30 min): 0.68 ± 0.12 % ID per gram
- % ID per gram heart (1 hour): 0.29 ± 0.10 % ID per gram
- % ID per gram kidney (5 min): 19.48 ± 1.46 % ID per gram
- % ID per gram kidney (30 min): 2.57 ± 0.78 % ID per gram
- % ID per gram kidney (1 hour): 1.34 ± 0.19 % ID per gram
- % ID per gram liver (5 min): 25.02 ± 3.70 % ID per gram
- % ID per gram liver (30 min): 2.48 ± 0.52 % ID per gram
- % ID per gram liver (1 hour): 1.19 ± 0.17 % ID per gram
- % ID per gram lung (5 min): 6.01 ± 0.77 % ID per gram
- % ID per gram lung (30 min): 1.34 ± 0.23 % ID per gram
- % ID per gram lung (1 hour): 0.70 ± 0.26 % ID per gram
- % ID per gram muscle (5 min): 1.94 ± 0.13 % ID per gram
- % ID per gram muscle (30 min): 1.67 ± 0.14 % ID per gram
- % ID per gram muscle (1 hour): 0.26 ± 0.07 % ID per gram
- % ID per gram tumor (5 min): 2.82 ± 0.36 % ID per gram
- % ID per gram tumor (30 min): 0.92 ± 0.10 % ID per gram
- % ID per gram tumor (1 hour): 0.50 ± 0.09 % ID per gram

SMILES: COc1cc2c(cc1OC)CN(CCNC(=O)c1cc(C)ccc1O[11CH3])CC2 [[^11C]9]
- % ID per gram blood (5 min): 5.89 ± 0.29 % ID per gram
- % ID per gram blood (30 min): 2.62 ± 0.22 % ID per gram
- % ID per gram blood (1 hour): 1.98 ± 0.35 % ID per gram
- % ID per gram brain (5 min): 1.63 ± 0.30 % ID per gram
- % ID per gram brain (30 min): 0.11 ± 0.01 % ID per gram
- % ID per gram brain (1 hour): 0.10 ± 0.04 % ID per gram
- % ID per gram fat (5 min): 3.07 ± 0.40 % ID per gram
- % ID per gram fat (30 min): 0.38 ± 0.12 % ID per gram
- % ID per gram fat (1 hour): 0.26 ± 0.09 % ID per gram
- % ID per gram heart (5 min): 2.89 ± 0.36 % ID per gram
- % ID per gram heart (30 min): 0.76 ± 0.06 % ID per gram
- % ID per gram heart (1 hour): 0.76 ± 0.46 % ID per gram
- % ID per gram kidney (5 min): 44.07 ± 1.67 % ID per gram
- % ID per gram kidney (30 min): 2.77 ± 0.42 % ID per gram
- % ID per gram kidney (1 hour): 1.01 ± 0.12 % ID per gram
- % ID per gram liver (5 min): 18.49 ± 2.87 % ID per gram
- % ID per gram liver (30 min): 3.87 ± 0.67 % ID per gram
- % ID per gram liver (1 hour): 1.70 ± 0.23 % ID per gram
- % ID per gram lung (5 min): 5.69 ± 0.70 % ID per gram
- % ID per gram lung (30 min): 1.42 ± 0.15 % ID per gram
- % ID per gram lung (1 hour): 1.39 ± 0.67 % ID per gram
- % ID per gram muscle (5 min): 1.75 ± 0.21 % ID per gram
- % ID per gram muscle (30 min): 0.56 ± 0.19 % ID per gram
- % ID per gram muscle (1 hour): 0.41 ± 0.22 % ID per gram
- % ID per gram tumor (5 min): 3.10 ± 0.25 % ID per gram
- % ID per gram tumor (30 min): 1.08 ± 0.08 % ID per gram
- % ID per gram tumor (1 hour): 0.85 ± 0.14 % ID per gram

SMILES: COc1cc2c(cc1OC)CN(CCNC(=O)c1cc([125I])ccc1OC)CC2 [[^125I]8i]
- ratio Tumor:blood (5 min): 0.42 ± 0.03
- ratio Tumor:fat (5 min): 0.84 ± 0.06
- ratio Tumor:heart (5 min): 1.04 ± 0.08
- ratio Tumor:lung (5 min): 0.50 ± 0.07
- ratio Tumor:muscle (5 min): 2.00 ± 0.37
- ratio Tumor:blood (30 min): 0.57 ± 0.12
- ratio Tumor:fat (30 min): 1.49 ± 0.65
- ratio Tumor:heart (30 min): 1.44 ± 0.18
- ratio Tumor:lung (30 min): 0.98 ± 0.16
- ratio Tumor:muscle (30 min): 2.06 ± 0.69
- ratio Tumor:blood (1 hour): 0.62 ± 0.09
- ratio Tumor:fat (1 hour): 1.93 ± 1.87
- ratio Tumor:heart (1 hour): 1.81 ± 0.32
- ratio Tumor:lung (1 hour): 0.91 ± 0.24
- ratio Tumor:muscle (1 hour): 2.14 ± 0.99
- ratio Tumor:blood (2 hour): 0.26 ± 0.08
- ratio Tumor:fat (2 hour): 2.44 ± 0.77
- ratio Tumor:heart (2 hour): 1.00 ± 0.27
- ratio Tumor:lung (2 hour): 0.67 ± 0.14
- ratio Tumor:muscle (2 hour): 2.17 ± 0.23
- % ID per gram blood (5 min): 6.90 ± 1.29 % ID per gram
- % ID per gram blood (30 min): 2.44 ± 0.65 % ID per gram
- % ID per gram blood (1 hour): 1.17 ± 0.29 % ID per gram
- % ID per gram blood (2 hour): 3.37 ± 1.23 % ID per gram
- % ID per gram brain (5 min): 1.42 ± 0.33 % ID per gram
- % ID per gram brain (30 min): 0.20 ± 0.06 % ID per gram
- % ID per gram brain (1 hour): 0.06 ± 0.02 % ID per gram
- % ID per gram brain (2 hour): 0.09 ± 0.03 % ID per gram
- % ID per gram fat (5 min): 3.46 ± 0.59 % ID per gram
- % ID per gram fat (30 min): 1.03 ± 0.44 % ID per gram
- % ID per gram fat (1 hour): 0.77 ± 0.66 % ID per gram
- % ID per gram fat (2 hour): 0.37 ± 0.13 % ID per gram
- % ID per gram heart (5 min): 2.79 ± 0.35 % ID per gram
- % ID per gram heart (30 min): 0.94 ± 0.19 % ID per gram
- % ID per gram heart (1 hour): 0.40 ± 0.02 % ID per gram
- % ID per gram heart (2 hour): 0.86 ± 0.26 % ID per gram
- % ID per gram kidney (5 min): 54.77 ± 8.42 % ID per gram
- % ID per gram kidney (30 min): 38.59 ± 2.05 % ID per gram
- % ID per gram kidney (1 hour): 18.07 ± 2.07 % ID per gram
- % ID per gram kidney (2 hour): 8.46 ± 1.26 % ID per gram
- % ID per gram liver (5 min): 41.37 ± 7.23 % ID per gram
- % ID per gram liver (30 min): 8.20 ± 1.05 % ID per gram
- % ID per gram liver (1 hour): 2.87 ± 0.34 % ID per gram
- % ID per gram liver (2 hour): 3.47 ± 1.05 % ID per gram
- % ID per gram lung (5 min): 5.95 ± 1.30 % ID per gram
- % ID per gram lung (30 min): 1.39 ± 0.29 % ID per gram
- % ID per gram lung (1 hour): 0.81 ± 0.20 % ID per gram
- % ID per gram lung (2 hour): 1.27 ± 0.37 % ID per gram
- % ID per gram muscle (5 min): 1.47 ± 0.20 % ID per gram
- % ID per gram muscle (30 min): 0.70 ± 0.25 % ID per gram
- % ID per gram muscle (1 hour): 0.37 ± 0.23 % ID per gram
- % ID per gram muscle (2 hour): 0.38 ± 0.06 % ID per gram
- % ID per gram tumor (5 min): 2.91 ± 0.40 % ID per gram
- % ID per gram tumor (30 min): 1.33 ± 0.13 % ID per gram
- % ID per gram tumor (1 hour): 0.71 ± 0.12 % ID per gram
- % ID per gram tumor (2 hour): 0.82 ± 0.09 % ID per gram

— patent US7893266B2, “Detection of cancer cells in vitro using sigma-2 receptor ligands as radiotracers” (Washington University, priority 2003, dated 2011)
